Data as given in paper PMC2888578, “Conformational Determinants of Phosphotyrosine Peptides Complexed with the Src SH2 Domain” (PLoS ONE, 2010).
Read-outs that look alike come from different tables or passages of the source. Where a SMILES comes first, the peptide text is derived from it. Where no end group is shown, it is not given here. [ ]: non-standard residue; d: D form. pY = N[C@@H](Cc1ccc(OP(=O)(O)O)cc1)C(=O)O

What was measured:
Src SH2 domain = target: T1, Src SH2 domain (Homo sapiens, UniProt P12931); assay: fluorescence polarization (FP) competition binding assay against fluorescent probe EPQ(pY)EEIPIYL(K-Flc); conditions: for IC50: concentration that reduces binding of fluorescein-labeled probe EPQ(pY)EEIPIYL(K-Flc) to the Src SH2 domain by 50%, 350 nM GST-Src SH2, 50 nM probe, 25°C, pH 7.3
T1 construct: 350 nM of GST-Src SH2 domain fusion protein
Protocol: The relative binding affinity of phosphopeptides to the Src SH2 domain was tested by competition against a fluorescent probe using a fluorescence polarization (FP) binding assay, [17], [18]. FP was measured at 25°C in a disposable glass tube, using a Beacon 2000 luminescence spectrometer equipped with an FP apparatus. The excitation and emission wavelengths were set at 485 and 535 nm, respectively. The fluorescent probe was the fluorescein (Flc)-labeled phosphopeptide EPQ(pY)EEIPIYL(K-Flc). For the competition assay, final concentrations of 350 nM of GST-Src SH2 domain fusion protein, 50 nM fluorescent probe, HEPES buffer (20 mM, pH 7.3, 100 mM NaCl, 2 mM DTT, 0.1% BSA) and various concentrations (0–100 µM) of each competitor peptide were used. A blank control (with the Src SH2 domain but without a peptide) and a background control (without both the Src SH2 domain and the peptide) were used. The inhibition percentage IP of fluorescent probe binding to the Src SH2 domain by the sample was calculated by the following equation: [drawing 1] where FP0 is the fluorescent polarization value of the blank control, FP is the fluorescent polarization value of the sample (peptide), and FPb is the fluorescent polarization value of the background control. The inhibition percentages of the various concentrations of the assayed peptides were plotted, and the IC50 value (the concentration that inhibits the binding of the fluorescent probe to the Src SH2 domain by 50%) was calculated.

Src SH2 = conditions: cited from earlier work

T1 sequence (P12931 151-248 limits assumed): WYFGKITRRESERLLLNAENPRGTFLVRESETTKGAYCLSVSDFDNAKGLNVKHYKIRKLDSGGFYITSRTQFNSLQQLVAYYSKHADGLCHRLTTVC

| Compound | IC50 (Src SH2 domain) | further results |
| --- | --- | --- |
| CC(C)[C@H](NC(=O)[C@H](CC(N)=O)NC(=O)[C@@H](NC(=O)[C@@H](N)Cc1ccc(OP(=O)(O)O)cc1)C(C)C)C(=O)O [pYVNV, pTyr-Val-Asn-Val-Ala] |  | est. ΔG (Src SH2 domain; estimated binding free energy from FP IC50): -6.96 kcal/mol |
| CC(C)[C@H](NC(=O)[C@H](CC(N)=O)NC(=O)[C@H](CCC(=O)O)NC(=O)[C@@H](N)Cc1ccc(OP(=O)(O)O)cc1)C(=O)O [pYENV] (H-[pY]ENV-OH) | 2100 ± 700 nM |  |
| N[C@@H](Cc1ccc(OP(=O)(O)O)cc1)C(=O)N[C@@H](CCC(=O)O)C(=O)N[C@@H](CCC(=O)O)C(=O)NCC(=O)O [pYEEG] (H-[pY]EEG-OH) | 5700 ± 2100 nM |  |
| pTyr-Val-Pro-Met-Leu ([pY]VPML) [phosphopeptide of the less specific Src SH2 crystal structure 1SHA] |  | Kd (Src SH2; complex of crystal structure 1SHA, read-out: Kd): 5500 nM |
| CC[C@H](C)[C@H](NC(=O)[C@H](CC(N)=O)NC(=O)[C@H](CCC(=O)O)NC(=O)[C@@H](N)Cc1ccc(OP(=O)(O)O)cc1)C(=O)O [pYENI, pTyr-Glu-Asn-Ile] (H-[pY]ENI-OH) | 1000 ± 100 nM |  |
| pTyr-Glu-Glu-Ile-Pro ([pY]EEIP) |  | Kd (Src SH2; complex of crystal structure 1SPS, read-out: affinity of the high-affinity complex with Src SH2): 80 to 200 nM |
